According to patent US20190224166A1, “Compositions and Methods for Treating Muscle Loss” (Augusta University Research Institute, Inc., priority 2018, published 2019):

Test system: quadriceps muscle
Assay: Proteomic analysis of quadriceps muscle of aged mice treated with 1-methyl-D-tryptophan (Table 1, TOPPGENE enrichment)
Format: in vivo
Method: Female mice 22 months of age were obtained from the National Institute on Aging and treated with saline (vehicle) or 1-methyl-D-tryptophan (1-MT, Sigma, 452483, lot#MKBZ1441V) at a low dose (10 mg/kg BW) or at a high dose (100 mg/kg BW). Mice were treated daily for 4 weeks. Treatments were administered i.p. with an injection volume of 0.2 ml following IACUC approved procedures. Mice were euthanized by CO2 overdose and muscles harvested for analysis. One quadriceps muscle was snap frozen for proteomics and the other quadriceps muscle fixed in buffered formalin for paraffin embedding and trichrome staining. The tibialis anterior was placed in PBS for amplex red assay.
The IDO inhibitor, 1-methyl-D-tryptophan, blocks kynurenine production and reduces levels of ROS in muscle.

Cn1cc(C[C@@H](N)C(=O)O)c2ccccc21 [1MT]
1MT vs Control: E3 ubiquitin-protein ligase UBR4 (A2AN08, GN = Ubr4): 0.5 | 1MT vs Control: Ryanodine receptor 1 (E9PZQ0, GN = Ryr1): 0.6614 | 1MT vs Control: Hexokinase-2 (O08528, GN = Hk2): 0.3158 | 1MT vs Control: Peroxiredoxin-6 (O08709, GN = Prdx6): 0.7083 | 1MT vs Control: Dihydrolipoyl dehydrogenase, mitochondrial (O08749, GN = Dld): 0.8444 | 1MT vs Control: Proteasome subunit beta type-1 (O09061, GN = Psmb1): 0.5556 | 1MT vs Control: Calsequestrin-1 (O09165, GN = Casq1): 0.9036 | 1MT vs Control: Branched-chain-amino-acid aminotransferase, mitochondrial (O35855, GN = Bcat2): 0.5 | 1MT vs Control: Polymerase I and transcript release factor (O54724, GN = Ptrf): 0.9 | 1MT vs Control: Protein NipSnap homolog 2 (O55126, GN = Gbas): 0.5294 | 1MT vs Control: Phosphoglycerate mutase 2 (O70250, GN = Pgam2): 0.8457 | 1MT vs Control: Voltage-dependent calcium channel gamma-1 subunit (O70578, GN = Cacng1): 0.75 | 1MT vs Control: Reticulon-2 (O70622, GN = Rtn2): 0.3 | 1MT vs Control: Alpha-actinin-3 (O88990, GN = Actn3): 0.8638 | 1MT vs Control: Complement C3 (P01027, GN = C3): 0.5294 | 1MT vs Control: Hemoglobin subunit alpha (P01942, GN = Hba): 0.5714 | 1MT vs Control: Hemoglobin subunit beta-1 (P02088, GN = Hbb-b1): 0.688 | 1MT vs Control: Myoglobin (P04247, GN = Mb): 0.381 | 1MT vs Control: Aspartate aminotransferase, cytoplasmic (P05201, GN = Got1): 0.8115 | 1MT vs Control: Aspartate aminotransferase, mitochondrial (P05202, GN = Got2): 0.6944 | 1MT vs Control: Myosin light chain 1/3, skeletal muscle isoform (P05977, GN = Myl1): 0.7007 | 1MT vs Control: Glucose-6-phosphate isomerase (P06745, GN = Gpi): 0.8424 | 1MT vs Control: Serum albumin (P07724, GN = Alb): 0.8778 | 1MT vs Control: Serine protease inhibitor A3K (P07759, GN = Serpina3k): 0.5238 | 1MT vs Control: Malate dehydrogenase, mitochondrial (P08249, GN = Mdh2): 0.915 | 1MT vs Control: Superoxide dismutase [Mn], mitochondrial (P09671, GN = Sod2): 0.45 | 1MT vs Control: Eukaryotic initiation factor 4A-II (P10630, GN = Eif4a2): 0.6 | 1MT vs Control: Thioredoxin (P10639, GN = Txn): 0.6154 | 1MT vs Control: Fatty acid-binding protein, heart (P11404, GN = Fabp3): 0.6667 | 1MT vs Control: Calcium/calmodulin-dependent protein kinase type II subunit alpha (P11798, GN = Camk2a): 0.4444 | 1MT vs Control: cAMP-dependent protein kinase type II-alpha regulatory subunit (P12367, GN = Prkar2a): 0.8333 | 1MT vs Control: Malate dehydrogenase, cytoplasmic (P14152, GN = Mdh1): 0.7895 | 1MT vs Control: Heat shock protein beta-1 (P14602, GN = Hspb1): 0.5385 | 1MT vs Control: Annexin A6 (P14824, GN = Anxa6): 0.7045 | 1MT vs Control: Selenium-binding protein 1 (P17563, GN = Selenbp1): 0.625 | 1MT vs Control: Cathepsin D (P18242, GN = Ctsd): 0.8 | 1MT vs Control: Glutathione S-transferase P 1 (P19157, GN = Gstp1): 0.7436 | 1MT vs Control: Thioredoxin-dependent peroxide reductase, mitochondrial (P20108, GN = Prdx3): 0.6875 | 1MT vs Control: Leukotriene A-4 hydrolase (P24527, GN = Lta4h): 0.6667 | 1MT vs Control: Retinal dehydrogenase 1 (P24549, GN = Aldh1a1): 0.375 | 1MT vs Control: Glutamate dehydrogenase 1, mitochondrial (P26443, GN = Glud1): 0.75 | 1MT vs Control: 26S proteasome non-ATPase regulatory subunit 7 (P26516, GN = Psmd7): 0.8333 | 1MT vs Control: Adenylosuccinate synthetase isozyme 1 (P28650, GN = Adssl1): 0.8583 | 1MT vs Control: Parvalbumin alpha (P32848, GN = Pvalb): 0.7209 | 1MT vs Control: Pyruvate dehydrogenase E1 component subunit alpha, somatic form, mitochondrial (P35486, GN = Pdha1): 0.5714 | 1MT vs Control: Peroxiredoxin-1 (P35700, GN = Prdx1): 0.9138 | 1MT vs Control: Stress-70 protein, mitochondrial (P38647, GN = Hspa9): 0.4 | 1MT vs Control: Enoyl-CoA delta isomerase 1, mitochondrial (P42125, GN = Eci1): 0.3333 | 1MT vs Control: Medium-chain specific acyl-CoA dehydrogenase, mitochondrial (P45952, GN = Acadm): 0.75 | 1MT vs Control: Carnitine O-acetyltransferase (P47934, GN = Crat): 0.3913 | 1MT vs Control: ADP/ATP translocase 1 (P48962, GN = Slc25a4): 0.4561 | 1MT vs Control: Long-chain specific acyl-CoA dehydrogenase, mitochondrial (P51174, GN = Acadl): 0.3269 | 1MT vs Control: Isocitrate dehydrogenase [NADP], mitochondrial (P54071, GN = Idh2): 0.3684 | 1MT vs Control: Adenylosuccinate lyase (P54822, GN = Adsl): 0.5172 | 1MT vs Control: Adenosine kinase (P55264, GN = Adk): 0.4545 | 1MT vs Control: ATP synthase subunit beta, mitochondrial (P56480, GN = Atp5b): 0.6321 | 1MT vs Control: Elongation factor 1-delta (P57776, GN = Eef1d): 0.8 | 1MT vs Control: 14-3-3 protein gamma (P61982, GN = Ywhag): 0.5417 | 1MT vs Control: Serine/threonine-protein phosphatase PP1-beta catalytic subunit (P62141, GN = Ppp1cb): 0.2857 | 1MT vs Control: Cytochrome c, somatic (P62897, GN = Cycs): 0.7778 | 1MT vs Control: Nuclease-sensitive element-binding protein 1 (P62960, GN = Ybx1): 0.6 | 1MT vs Control: Profilin-1 (P62962, GN = Pfn1): 0.8333 | 1MT vs Control: 60 kDa heat shock protein, mitochondrial (P63038, GN = Hspd1): 0.2222 | 1MT vs Control: Eukaryotic translation initiation factor 5A-1 (P63242, GN = Eif5a): 0.8936 | 1MT vs Control: Guanine nucleotide-binding protein subunit beta-2-like 1 (P68040, GN = Gnb2l1): 0.8889 | 1MT vs Control: Histidine triad nucleotide-binding protein 1 (P70349, GN = Hint1): 0.8667 | 1MT vs Control: Isocitrate dehydrogenase [NAD] subunit gamma 1, mitochondrial (P70404, GN = Idh3g): 0.4286 | 1MT vs Control: Fructose-1,6-bisphosphatase isozyme 2 (P70695, GN = Fbp2): 0.6078 | 1MT vs Control: Spermine synthase (P97355, GN = Sms): 0.5455 | 1MT vs Control: Histone-lysine N-methyltransferase Smyd1 (P97443, GN = Smyd1): 0.8143 | 1MT vs Control: Myosin regulatory light chain 2, skeletal muscle isoform (P97457, GN = Mylpf): 0.6453 | 1MT vs Control: Fumarate hydratase, mitochondrial (P97807, GN = Fh): 0.7414 | 1MT vs Control: Acyl-protein thioesterase 1 (P97823, GN = Lypla1): 0.5 | 1MT vs Control: 60S acidic ribosomal protein P2 (P99027, GN = Rplp2): 0.7143 | 1MT vs Control: Tripartite motif-containing protein 72 (Q1XH17, GN = Trim72): 0.9048 | 1MT vs Control: Secernin-3 (Q3TMH2, GN = Scrn3): 0.6667 | 1MT vs Control: Trimeric intracellular cation channel type A (Q3TMP8, GN = Tmem38a): 0.6923 | 1MT vs Control: AMP deaminase 1 (Q3V1D3, GN = Ampd1): 0.86 | 1MT vs Control: UDP-glucose: glycoprotein glucosyltransferase 1 (Q6P5E4, GN = Uggt1): 0.2857 | 1MT vs Control: Creatine kinase S-type, mitochondrial (Q6P8J7, GN = Ckmt2): 0.3977 | 1MT vs Control: Sodium/potassium-transporting ATPase subunit alpha-2 (Q6PIE5, GN = Atp1a2): 0.5143 | 1MT vs Control: Calcium-binding mitochondrial carrier protein Aralar1 (Q8BH59, GN = Slc25a12): 0.3939 | 1MT vs Control: EH domain-containing protein 2 (Q8BH64, GN = Ehd2): 0.5714 | 1MT vs Control: Dihydrolipoyllysine-residue acetyltransferase component of pyruvate dehydrogenase complex, mitochondrial (Q8BMF4, GN = Dlat): 0.6053 | 1MT vs Control: Trifunctional enzyme subunit alpha, mitochondrial (Q8BMS1, GN = Hadha): 0.561 | 1MT vs Control: Isoleucine--tRNA ligase, cytoplasmic (Q8BU30, GN = Iars): 0.75 | 1MT vs Control: Fructose-2,6-bisphosphatase TIGAR (Q8BZA9, GN = Tigar): 0.6944 | 1MT vs Control: PDZ and LIM domain protein 5 (Q8CI51, GN = Pdlim5): 0.6667 | 1MT vs Control: Succinate dehydrogenase [ubiquinone] flavoprotein subunit, mitochondrial (Q8K2B3, GN = Sdha): 0.7037 | 1MT vs Control: 5-oxoprolinase (Q8K010, GN = Oplah): 0.75 | 1MT vs Control: Acetyl-CoA acetyltransferase, mitochondrial (Q8QZT1, GN = Acat1): 0.9231 | 1MT vs Control: Sarcoplasmic/endoplasmic reticulum calcium ATPase 1 (Q8R429, GN = Atp2a1): 0.9045 | 1MT vs Control: Carboxylesterase 1D (Q8VCT4, GN = Ces1d): 0.8571 | 1MT vs Control: Phosphate carrier protein, mitochondrial (Q8VEM8, GN = Slc25a3): 0.3333 | 1MT vs Control: G-protein coupled receptor 98 (Q8VHN7, GN = Gpr98): 0.6667 | 1MT vs Control: 2,4-dienoyl-CoA reductase, mitochondrial (Q9CQ62, GN = Decr1): 0.375 | 1MT vs Control: Bifunctional purine biosynthesis protein PURH (Q9CWJ9, GN = Atic): 0.8571 | 1MT vs Control: Cytochrome b-c1 complex subunit 1, mitochondrial (Q9CZ13, GN = Uqcrc1): 0.25 | 1MT vs Control: Citrate synthase, mitochondrial (Q9CZU6, GN = Cs): 0.5333 | 1MT vs Control: Succinyl-CoA: 3-ketoacid coenzyme A transferase 1, mitochondrial (Q9D0K2, GN = Oxct1): 0.75 | 1MT vs Control: Cytosolic non-specific dipeptidase (Q9D1A2, GN = Cndp2): 0.8 | 1MT vs Control: Protein-cysteine N-palmitoyltransferase HHAT-like protein (Q9D1G3, GN = Hhatl): 0.4545 | 1MT vs Control: Dihydrolipoyllysine-residue succinyltransferase component of 2-oxoglutarate dehydrogenase complex, mitochondrial (Q9D2G2, GN = Dlst): 0.4857 | 1MT vs Control: Ribose-phosphate pyrophosphokinase 1 (Q9D7G0, GN = Prps1): 0.8723 | 1MT vs Control: 60S ribosomal protein L4 (Q9D8E6, GN = Rpl4): 0.6667 | 1MT vs Control: Pyruvate dehydrogenase E1 component subunit beta, mitochondrial (Q9D051, GN = Pdhb): 0.6279 | 1MT vs Control: 14 kDa phosphohistidine phosphatase (Q9DAK9, GN = Phpt1): 0.75 | 1MT vs Control: Cytochrome b-c1 complex subunit 2, mitochondrial (Q9DB77, GN = Uqcrc2): 0.3958 | 1MT vs Control: Trans-1,2-dihydrobenzene-1,2-diol dehydrogenase (Q9DBB8, GN = Dhdh): 0.8333 | 1MT vs Control: Electron transfer flavoprotein subunit beta (Q9DCW4, GN = Etfb): 0.5 | 1MT vs Control: Methylmalonate-semialdehyde dehydrogenase [acylating], mitochondrial (Q9EQ20, GN = Aldh6a1): 0.65 | 1MT vs Control: Ubiquitin carboxyl-terminal hydrolase 14 (Q9JMA1, GN = Usp14): 0.8 | 1MT vs Control: Prolyl endopeptidase (Q9QUR6, GN = Prep): 0.5 | 1MT vs Control: Plectin (Q9QXS1, GN = Plec): 0.4894 | 1MT vs Control: Vesicle-associated membrane protein-associated protein B (Q9QY76, GN = Vapb): 0.5333 | 1MT vs Control: S-formylglutathione hydrolase (Q9R0P3, GN = Esd): 0.8929 | 1MT vs Control: Proteasome subunit alpha type-1 (Q9R1P4, GN = Psma1): 0.375 | 1MT vs Control: Glycogen phosphorylase, muscle form (Q9WUB3, GN = Pygm): 0.9185 | 1MT vs Control: Glycogen [starch] synthase, muscle (Q9Z1E4, GN = Gys1): 0.6275 | 1MT vs Control: Succinyl-CoA ligase [ADP-forming] subunit beta, mitochondrial (Q9Z2I9, GN = Sucla2): 0.52 | 1MT vs Control: Nucleosome assembly protein 1-like 4 (Q78ZA7, GN = Nap1l4): 0.8571 | 1MT vs Control: Hemopexin (Q91X72, GN = Hpx): 0.7391 | 1MT vs Control: NADH dehydrogenase [ubiquinone] flavoprotein 1, mitochondrial (Q91YT0, GN = Ndufv1): 0.4
